Experimental data reported in ChEMBL document CHEMBL5696439 (Cancer Res, 2010).
Active and inactive are the calls of the source. No cut-off for these calls is given here.

Legend:
[1] = biological target: Mitogen-activated protein kinase 13 (Homo sapiens) (UniProt O15264); assay: Inhibition of recombinant human full length His-tagged MAPK13 expressed in baculovirus expression system at 2 uM using Ser/Thr 03 as substrate measured after 1 hr by Z'-LYTE assay relative to control
[2] = biological target: Dual specificity tyrosine-phosphorylation-regulated kinase 4 (Homo sapiens) (UniProt Q9NR20); assay: Inhibition of recombinant human full-length GST-tagged DYRK4 expressed in insect cells at 2 uM using Ser/Thr 09 as substrate measured after 1 hr by Z'-LYTE assay relative to control; settings: Insect cell
[3] = biological target: cGMP-dependent protein kinase 1 (Homo sapiens) (UniProt Q13976); assay: Inhibition of recombinant human full length GST-tagged PRKG1 expressed in baculovirus expression system at 2 uM using Ser/Thr 01 as substrate measured after 1 hr by Z'-LYTE assay relative to control
LNCaP = assay: Induction of apoptosis in human LNCaP cells assessed as increase in PARP cleavage at 0.3 to 3 micromol/L incubated for 48 hrs by Western blot analysis; type: functional, cell-based; settings: dose 0.3-3 µmol/L
[4] = biological target: RAC-gamma serine/threonine-protein kinase (Homo sapiens) (UniProt Q9Y243); assay: Inhibition of recombinant human full-length His-tagged AKT3 expressed in insect cells at 2 uM using Ser/Thr 06 as substrate measured after 1 hr by Z'-LYTE assay relative to control; settings: Insect cell
[5] = biological target: Serine/threonine-protein kinase 24 (Homo sapiens) (UniProt Q9Y6E0); assay: Inhibition of recombinant human full length GST-tagged STK24 expressed in insect cells at 2 uM using Ser/Thr 07 as substrate measured after 1 hr by Z'-LYTE assay relative to control; settings: Insect cell
[6] = biological target: Phosphorylase b kinase gamma catalytic chain, skeletal muscle/heart isoform (Homo sapiens) (UniProt Q16816); assay: Inhibition of recombinant human full length GST-tagged PHKG1 expressed in insect cells at 2 uM using Ser/Thr 07 as substrate measured after 1 hr by Z'-LYTE assay relative to control; settings: Insect cell
MDA-MB-361 [7] = assay: Antitumor activity against human MDA-MB-361 cells xenografted in female nude mouse model assessed as suppression in P-AKT at S473 level at 50 mg/kg, iv administered once a week and measured at least 8 hrs by immunoblot analysis; type: functional, organism-based
[8] = biological target: Tyrosine-protein kinase ZAP-70 (Homo sapiens) (UniProt P43403); assay: Inhibition of recombinant human full length His-tagged ZAP70 expressed in baculovirus expression system at 2 uM using […] as substrate measured after 1 hr by Z'-LYTE assay relative to control
A498 = assay: Antiproliferative activity against human A498 cells assessed as cell growth inhibition incubated for 24 hrs by MTS assay; type: functional, cell-based; settings: A498, 24 h
[9] = biological target: Serine/threonine-protein kinase 4 (Homo sapiens) (UniProt Q13043); assay: Inhibition of recombinant human full length GST-tagged STK4 expressed in insect cells at 2 uM using Ser/Thr 07 as substrate measured after 1 hr by Z'-LYTE assay relative to control; settings: Insect cell
MDA-MB-361 [10] = assay: Antitumor activity against human MDA-MB-361 cells xenografted in female nude mouse model assessed as reduction in P-AKT at T308 level at 50 mg/kg, iv administered once a week and measured at least 8 hrs by immunoblot analysis; type: functional, organism-based
[11] = biological target: Serine/threonine-protein kinase ATR (Homo sapiens, UniProt Q13535); assay: Inhibition of ATR (unknown origin) using glutathione S-transferase-p53 as substrate by DELFIA
HCT-116 = assay: Antitumor activity against human HCT-116 cells xenografted in female nude mouse model assessed as reduction in P-AKT at T308 level at 50 mg/kg, iv administered once a week and measured at least 8 hrs by immunoblot analysis; type: functional, organism-based
MDA-MB-361 [12] = assay: Antitumor activity against human MDA-MB-361 cells assessed as block the hypoxia-induced lactate production in low oxygen at 0.3 micromol/L incubated for 24 hrs; type: functional, cell-based; settings: dose 0.3 µmol/L
[13] = biological target: Angiopoietin-1 receptor (Homo sapiens) (UniProt Q02763); assay: Inhibition of recombinant human GST-tagged TEK (817-1101 residues) expressed in insect cells at 2 uM using […] as substrate measured after 1 hr by Z'-LYTE assay relative to control; settings: Insect cell
NCI-H1975 = assay: Antitumor activity against human NCI-H1975 cells xenografted in female nude mouse model assessed as survival at 10 mg/kg, po qd administered as 5 days on/2 days off regimen for 4 cycles; type: functional, organism-based; settings: time 28.0 day
[14] = biological target: Misshapen-like kinase 1 (Homo sapiens) (UniProt Q8N4C8); assay: Inhibition of recombinant human GST-tagged MINK1 (1-320 residues) expressed in insect cells at 2 uM using Ser/Thr 07 as substrate measured after 1 hr by Z'-LYTE assay relative to control; settings: Insect cell
[15] = biological target: Ephrin type-A receptor 5 (Homo sapiens) (UniProt P54756); assay: Inhibition of recombinant human GST-tagged EPHA5 (595-1037 residues) expressed in insect cells at 2 uM using Tyr 01 as substrate measured after 1 hr by Z'-LYTE assay relative to control; settings: Insect cell
MDA-MB-361 [16] = assay: Induction of apoptosis in human MDA-MB-361 cells assessed as decrease in AKT phosphorylation at S473 level at 0.05 to 5 micromol/L incubated for 48 hrs by Western blot analysis; type: functional, cell-based; settings: dose 0.05-5 µmol/L
MDA-MB-361 [17] = assay: Antiproliferative activity against human MDA-MB-361 cells assessed as cell growth inhibition incubated for 3 days by MTS assay; type: functional, cell-based; settings: MDA-MB-361, 72 h
MDA-MB-361 [18] = assay: Induction of apoptosis in human MDA-MB-361 cells assessed as induction in cell death at 1 micromol/L incubated for 48 hrs by FACS analysis relative to control; type: functional; settings: dose 1 µmol/L, at 1 µM
A549 = assay: Induction of apoptosis in human A549 cells assessed as increase in G1 phase at 1 micromol/L incubated for 24 hrs by FACS analysis; type: functional, cell-based; settings: dose 1.0 µmol/L
[19] = biological target: Serine/threonine-protein kinase Sgk1 (Homo sapiens) (UniProt O00141); assay: Inhibition of recombinant human GST-tagged SGK (60-431 residues) expressed in insect cells at 2 uM using Ser/Thr 06 as substrate measured after 1 hr by Z'-LYTE assay relative to control; settings: Insect cell
[20] = biological target: Myosin light chain kinase 2, skeletal/cardiac muscle (Homo sapiens) (UniProt Q9H1R3); assay: Inhibition of recombinant human full length GST-tagged MYLK2 expressed in insect cells at 2 uM using Ser/Thr 13 as substrate measured after 1 hr by Z'-LYTE assay relative to control; settings: Insect cell
PI3K p110 beta/p85 alpha = PI3K p110 beta/p85 alpha (Homo sapiens, UniProt P42338); assay: Inhibition of p110beta/p85alpha (unknown origin) using PIP2 as substrate measured after 15 to 30 mins by fluorescence polarization assay; type: protein-complex assay
[21] = biological target: Proto-oncogene tyrosine-protein kinase Src (Homo sapiens) (UniProt P12931); assay: Inhibition of recombinant human full length His-tagged SRC expressed in insect cells at 2 uM using Tyr 02 as substrate measured after 1 hr by Z'-LYTE assay relative to control; settings: Insect cell

Chain of Angiopoietin-1 receptor (Homo sapiens) (Q02763 whole entry, the tested form may be a part): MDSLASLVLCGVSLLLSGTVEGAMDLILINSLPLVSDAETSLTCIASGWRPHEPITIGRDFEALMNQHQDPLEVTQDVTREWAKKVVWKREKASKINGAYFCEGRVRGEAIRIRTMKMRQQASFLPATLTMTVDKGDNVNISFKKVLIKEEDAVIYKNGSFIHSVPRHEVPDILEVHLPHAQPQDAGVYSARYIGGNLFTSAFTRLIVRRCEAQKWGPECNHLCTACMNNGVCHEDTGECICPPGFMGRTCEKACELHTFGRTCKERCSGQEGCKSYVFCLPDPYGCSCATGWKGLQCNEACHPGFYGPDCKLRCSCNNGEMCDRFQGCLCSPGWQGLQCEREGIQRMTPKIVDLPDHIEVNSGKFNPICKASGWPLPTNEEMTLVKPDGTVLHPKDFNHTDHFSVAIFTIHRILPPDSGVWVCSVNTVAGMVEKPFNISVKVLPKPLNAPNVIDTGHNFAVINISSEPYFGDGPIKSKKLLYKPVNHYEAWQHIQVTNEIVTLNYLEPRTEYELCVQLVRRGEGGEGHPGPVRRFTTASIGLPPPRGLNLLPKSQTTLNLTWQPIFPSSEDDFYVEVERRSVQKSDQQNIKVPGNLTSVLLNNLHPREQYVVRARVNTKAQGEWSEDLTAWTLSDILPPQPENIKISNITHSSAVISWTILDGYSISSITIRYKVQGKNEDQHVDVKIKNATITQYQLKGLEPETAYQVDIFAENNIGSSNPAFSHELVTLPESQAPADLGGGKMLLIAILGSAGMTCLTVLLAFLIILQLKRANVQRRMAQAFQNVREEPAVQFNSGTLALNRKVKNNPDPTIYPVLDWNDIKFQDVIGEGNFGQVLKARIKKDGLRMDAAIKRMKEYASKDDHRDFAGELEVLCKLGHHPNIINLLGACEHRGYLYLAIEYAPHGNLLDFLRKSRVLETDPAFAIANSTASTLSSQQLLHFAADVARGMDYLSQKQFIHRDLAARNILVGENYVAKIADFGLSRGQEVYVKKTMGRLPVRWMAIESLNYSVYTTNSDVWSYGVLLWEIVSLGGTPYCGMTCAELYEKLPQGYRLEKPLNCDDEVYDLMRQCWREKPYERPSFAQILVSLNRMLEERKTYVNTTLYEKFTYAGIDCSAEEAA
Chain of cGMP-dependent protein kinase 1 (Homo sapiens) (Q13976 whole entry): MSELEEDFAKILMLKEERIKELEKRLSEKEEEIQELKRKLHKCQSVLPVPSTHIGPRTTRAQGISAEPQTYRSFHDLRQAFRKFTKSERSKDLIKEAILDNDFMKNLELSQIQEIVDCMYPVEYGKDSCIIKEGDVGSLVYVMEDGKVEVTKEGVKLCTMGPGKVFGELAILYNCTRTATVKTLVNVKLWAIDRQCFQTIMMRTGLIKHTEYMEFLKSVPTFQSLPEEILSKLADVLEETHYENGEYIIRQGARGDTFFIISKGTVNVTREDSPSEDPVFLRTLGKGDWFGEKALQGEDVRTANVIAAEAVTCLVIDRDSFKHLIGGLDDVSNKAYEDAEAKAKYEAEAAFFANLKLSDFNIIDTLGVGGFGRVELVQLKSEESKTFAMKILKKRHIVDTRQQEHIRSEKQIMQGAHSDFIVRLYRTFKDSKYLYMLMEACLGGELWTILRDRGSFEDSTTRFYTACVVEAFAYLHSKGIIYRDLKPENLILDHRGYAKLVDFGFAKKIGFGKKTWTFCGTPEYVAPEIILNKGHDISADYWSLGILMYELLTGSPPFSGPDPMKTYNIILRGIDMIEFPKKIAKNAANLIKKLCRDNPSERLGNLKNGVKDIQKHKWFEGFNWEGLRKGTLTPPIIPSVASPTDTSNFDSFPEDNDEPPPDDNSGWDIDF
Chain of Ephrin type-A receptor 5 (Homo sapiens) (P54756 whole entry, the tested form may be a part): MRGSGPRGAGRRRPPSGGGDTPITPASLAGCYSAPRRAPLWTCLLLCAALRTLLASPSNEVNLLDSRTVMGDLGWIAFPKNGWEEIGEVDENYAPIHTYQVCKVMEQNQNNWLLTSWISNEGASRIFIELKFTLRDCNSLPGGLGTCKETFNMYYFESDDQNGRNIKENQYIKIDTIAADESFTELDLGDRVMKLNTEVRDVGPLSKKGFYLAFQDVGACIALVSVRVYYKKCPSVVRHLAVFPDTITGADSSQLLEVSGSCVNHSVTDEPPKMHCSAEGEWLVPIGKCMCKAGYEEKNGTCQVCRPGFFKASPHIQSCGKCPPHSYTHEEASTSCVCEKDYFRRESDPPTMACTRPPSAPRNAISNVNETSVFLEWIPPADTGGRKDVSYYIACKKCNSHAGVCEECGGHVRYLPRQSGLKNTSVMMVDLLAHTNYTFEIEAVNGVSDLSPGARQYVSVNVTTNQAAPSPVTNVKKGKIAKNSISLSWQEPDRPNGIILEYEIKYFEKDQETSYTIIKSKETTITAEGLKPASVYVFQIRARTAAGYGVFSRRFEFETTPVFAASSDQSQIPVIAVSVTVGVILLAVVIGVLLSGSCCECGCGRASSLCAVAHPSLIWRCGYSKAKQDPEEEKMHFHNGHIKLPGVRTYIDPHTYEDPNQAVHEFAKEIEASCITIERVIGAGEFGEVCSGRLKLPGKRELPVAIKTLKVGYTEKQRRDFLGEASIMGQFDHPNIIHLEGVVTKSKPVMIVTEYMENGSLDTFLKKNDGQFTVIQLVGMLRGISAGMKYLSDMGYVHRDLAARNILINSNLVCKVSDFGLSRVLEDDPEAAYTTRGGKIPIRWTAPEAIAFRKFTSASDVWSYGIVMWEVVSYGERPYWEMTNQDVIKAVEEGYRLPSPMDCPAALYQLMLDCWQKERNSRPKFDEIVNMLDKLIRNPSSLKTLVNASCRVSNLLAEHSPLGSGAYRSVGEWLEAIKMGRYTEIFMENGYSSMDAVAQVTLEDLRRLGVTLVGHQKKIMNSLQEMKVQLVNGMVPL
Chain of PI3K p110 beta/p85 alpha (P27986 whole entry): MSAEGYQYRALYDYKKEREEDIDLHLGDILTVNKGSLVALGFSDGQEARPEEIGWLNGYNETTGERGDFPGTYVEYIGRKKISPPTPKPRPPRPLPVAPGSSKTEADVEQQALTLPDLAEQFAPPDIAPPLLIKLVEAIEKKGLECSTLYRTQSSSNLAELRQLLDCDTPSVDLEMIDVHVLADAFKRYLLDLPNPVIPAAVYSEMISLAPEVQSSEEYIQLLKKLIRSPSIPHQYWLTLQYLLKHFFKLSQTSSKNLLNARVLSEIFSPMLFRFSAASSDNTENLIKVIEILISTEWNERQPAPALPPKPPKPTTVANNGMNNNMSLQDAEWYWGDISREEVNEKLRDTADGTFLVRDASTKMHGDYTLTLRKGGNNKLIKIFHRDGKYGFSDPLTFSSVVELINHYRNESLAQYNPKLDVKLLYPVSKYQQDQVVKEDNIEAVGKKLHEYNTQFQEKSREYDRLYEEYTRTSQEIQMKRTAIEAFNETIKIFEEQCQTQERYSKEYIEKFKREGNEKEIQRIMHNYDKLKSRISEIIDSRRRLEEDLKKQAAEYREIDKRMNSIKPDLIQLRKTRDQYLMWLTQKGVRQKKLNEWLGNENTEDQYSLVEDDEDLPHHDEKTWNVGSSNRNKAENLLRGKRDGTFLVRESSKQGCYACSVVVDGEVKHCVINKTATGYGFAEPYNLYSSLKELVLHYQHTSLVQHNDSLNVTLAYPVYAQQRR
Chain of PI3K p110 beta/p85 alpha (P42338 whole entry): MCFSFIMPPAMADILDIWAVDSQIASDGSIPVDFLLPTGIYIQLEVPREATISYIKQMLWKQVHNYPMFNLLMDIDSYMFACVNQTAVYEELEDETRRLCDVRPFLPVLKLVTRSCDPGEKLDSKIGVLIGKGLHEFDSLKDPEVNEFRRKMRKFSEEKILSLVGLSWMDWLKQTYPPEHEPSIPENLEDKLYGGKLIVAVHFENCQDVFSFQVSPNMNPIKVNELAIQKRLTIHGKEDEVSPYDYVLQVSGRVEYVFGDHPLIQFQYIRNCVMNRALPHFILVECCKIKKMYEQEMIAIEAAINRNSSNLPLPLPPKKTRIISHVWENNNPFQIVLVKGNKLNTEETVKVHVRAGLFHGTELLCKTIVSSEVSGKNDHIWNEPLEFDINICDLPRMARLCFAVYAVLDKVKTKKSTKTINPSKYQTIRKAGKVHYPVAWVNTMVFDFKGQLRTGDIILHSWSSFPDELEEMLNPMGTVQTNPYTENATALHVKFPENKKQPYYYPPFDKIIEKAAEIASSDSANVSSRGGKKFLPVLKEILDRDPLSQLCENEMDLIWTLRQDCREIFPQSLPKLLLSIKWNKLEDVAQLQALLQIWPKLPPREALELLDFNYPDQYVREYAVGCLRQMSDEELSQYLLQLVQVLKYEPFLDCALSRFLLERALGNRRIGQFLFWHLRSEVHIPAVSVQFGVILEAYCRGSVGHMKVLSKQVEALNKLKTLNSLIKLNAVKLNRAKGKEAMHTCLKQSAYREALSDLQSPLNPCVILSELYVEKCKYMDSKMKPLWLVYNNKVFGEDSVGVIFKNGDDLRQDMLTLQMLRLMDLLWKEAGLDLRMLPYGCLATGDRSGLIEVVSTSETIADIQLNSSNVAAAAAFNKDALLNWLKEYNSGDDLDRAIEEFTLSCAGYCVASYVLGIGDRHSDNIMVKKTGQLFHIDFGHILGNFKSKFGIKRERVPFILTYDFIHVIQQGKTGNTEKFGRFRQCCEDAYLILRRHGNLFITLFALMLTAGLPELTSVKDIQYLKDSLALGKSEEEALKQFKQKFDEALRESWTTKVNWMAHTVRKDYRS
Chain of Serine/threonine-protein kinase Sgk1 (Homo sapiens) (O00141 whole entry, the tested form may be a part): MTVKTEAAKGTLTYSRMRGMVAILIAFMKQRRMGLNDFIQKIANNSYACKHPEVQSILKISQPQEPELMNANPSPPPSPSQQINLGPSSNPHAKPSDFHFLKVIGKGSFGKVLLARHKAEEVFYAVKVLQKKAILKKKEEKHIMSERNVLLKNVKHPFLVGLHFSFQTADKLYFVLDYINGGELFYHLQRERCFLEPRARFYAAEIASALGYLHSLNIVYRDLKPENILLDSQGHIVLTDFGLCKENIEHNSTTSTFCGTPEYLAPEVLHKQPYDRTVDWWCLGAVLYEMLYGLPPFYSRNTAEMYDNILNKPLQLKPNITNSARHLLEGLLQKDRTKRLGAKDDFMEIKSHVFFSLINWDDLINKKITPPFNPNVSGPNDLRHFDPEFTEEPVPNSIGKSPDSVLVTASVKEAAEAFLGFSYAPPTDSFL

Question: What does the source list for `CNC(=O)Nc1ccc(-c2nc(N3CC4CCC(C3)O4)c3cnn(C4CCC5(CC4)OCCO5)c3n2)cc1`?
Answer: inhibition [1]: 4%; inhibition [2]: 4%; inhibition [3]: 1%; Activity (LNCaP): Active; inhibition [4]: 2%; inhibition [5]: -1%; inhibition [6]: 7%; Activity (MDA-MB-361 [7]): Active; inhibition [8]: 7%; IC50 (A498): 110 nM; inhibition [9]: 12%; Activity (MDA-MB-361 [10]): inactive; IC50 [11]: > 10000 nM; Activity (HCT-116): inactive; Activity (MDA-MB-361 [12]): Active; inhibition [13]: 10%; Activity (NCI-H1975): Active; inhibition [14]: 14%; inhibition [15]: 2%; Activity (MDA-MB-361 [16]): Active; IC50 (MDA-MB-361 [17]): 12 nM; Activity (MDA-MB-361 [18]): 47%; Activity (A549): Active; inhibition [19]: -2%; inhibition [20]: 8%; IC50 (PI3K p110 beta/p85 alpha): > 10000 nM; inhibition [21]: 3%
